Laboratory results: patent EP0358085A1, “(1R,5S,6S)-6-[(R)-1-Hydroxyethyl]-1-methyl-2-[(1-alkyl-1,2,4-triazolium-2-yl)alkyl]-thio-carbapenem-3-carboxylic acid derivatives” (LEDERLE (JAPAN) LTD., priority 1988, dated 1990)
Converted amounts (≈) assume the structure as drawn. Read-outs that look alike come from different tables or passages of the source.

What was measured:
[1] = biological target: T1, Swine Kidney Dehydropeptidase-I (DHP-I) (Sus scrofa, UniProt P22412); assay: Hydrolysis activity against DHP-I enzyme substrate by late assay (decrease in absorbency); format: biochemical; settings: final substrate concentration 100µM; 37°C, 10 minutes; pH 7.1
T1 construct: made soluble by treatment with butanol and purified by the ammonium sulfate fraction method, thereby producing DHP-I enzyme; from tissue; host or cells: swine kidney
T1 sequence (P22412 17-384): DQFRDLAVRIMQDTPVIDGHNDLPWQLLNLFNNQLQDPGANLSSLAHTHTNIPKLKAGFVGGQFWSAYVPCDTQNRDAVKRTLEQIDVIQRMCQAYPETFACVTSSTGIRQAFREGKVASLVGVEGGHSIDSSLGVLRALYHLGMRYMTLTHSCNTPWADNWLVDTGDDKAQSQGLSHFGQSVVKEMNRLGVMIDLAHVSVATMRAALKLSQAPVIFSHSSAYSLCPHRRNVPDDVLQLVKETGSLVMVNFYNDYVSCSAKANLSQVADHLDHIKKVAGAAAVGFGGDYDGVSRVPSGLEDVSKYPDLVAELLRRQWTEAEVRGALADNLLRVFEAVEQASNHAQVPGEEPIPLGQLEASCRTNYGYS
Protocol: The swine kidney (8 kg) was homogenized and the enzyme protein was allowed to precipitate. After a connective lipid was removed with acetone, the resultant material was made soluble by treatment with butanol and purified by the ammonium sulfate fraction method, thereby producing DHP-I enzyme from a 75 % ammonium sulfate fraction. The DHP-I enzyme was then adjusted to give an enzyme concentration of 25 mg/10 ml (phosphate buffer, pH 7.1), and divided into 1 ml portions. The portions were frozen and stored at -40°C or less until use. Glycyl dehydrophenylalanine (Gl-dh-Ph) and imipenem were employed as control compounds, and they were adjusted in situ each to give a concentration of 117µM with the same sodium phosphate buffer solution. […] The solution was then incubated at 37°C for 10 minutes. The initial velocity of hydrolysis of the substrate was measured from a decrease in absorbency at a particular λmax of each of the substrates. A blank test was conducted in substantially the same manner as above by adding 0.2 ml of the sodium phosphate buffer solution (pH 7.1) to 1.2 ml of the above substrate.

Salmonella typhi 901 = assay: Antibacterial test, agar plate dilution method (MIC); format: cell-based; settings: Salmonella enterica, 18 h
Protocol: (§1) The antibacterial activities were tested by an agar plate dilution method in accordance with the standard method of The Japanese Chemotherapy Society [Chemotherapy, Vol. 29, 76-79 (1981)].
(§2) A Mueller-Hinton (MH) agar liquid medium of a test microorganism was cultured overnight at 37°C and the resultant culture medium was diluted with a buffered saline gelatin (BSG) solution to contain approximately 10⁶ cells of the test microorganisms per milliliter, and then the diluted solution was inoculated with a micro-planter at the rate of approximately 5 microliters on a MH agar medium containing a test compound. This medium was then incubated at 37°C for 18 hours. The minimum inhibitory concentration (MIC) is determined as a minimum concentration in which no test microorganism could grow. It is noted here that the test organisms used were all standard strains.

[2] = tested on: Salmonella typhimurium IID971; assay: as above; format: cell-based; settings: Salmonella enterica, MH agar, 37°C, 18 hours
Protocol: as §1, §2

[3] = tested on: Staphylococcus aureus MS353; assay: as above; format: cell-based; settings: MH agar, 37°C, 18 hours
Protocol: as §1, §2

[4] = tested on: Pseudomonas aeruginosa IFO 3445; assay: as above; format: cell-based; settings: IFO3445, MH agar, 37°C, 18 hours
Protocol: as §1, §2

[5] = tested on: Pseudomonas aeruginosa NCTC 10490; assay: as above; format: cell-based; settings: NCTC10490, MH agar, 37°C, 18 hours
Protocol: as §1, §2

[6] = tested on: Klebsiella pneumoniae PCI-602; assay: as above; format: cell-based; settings: PCI602, MH agar, 37°C, 18 hours
Protocol: as §1, §2

[7] = tested on: Enterobacter aerogenes ATCC1304; assay: as above; format: cell-based; settings: Klebsiella aerogenes
Protocol: as §1, §2

[8] = tested on: Providencia rettgeri IFO 3850; assay: as above; format: cell-based; settings: IFO3850, MH agar, 37°C, 18 hours
Protocol: as §1, §2

[9] = tested on: Bacillus subtilis ATCC6633; assay: as above; format: cell-based; settings: MH agar, 37°C, 18 hours
Protocol: as §1, §2

[10] = tested on: Proteus mirabilis IFO3849; assay: as above; format: cell-based
Protocol: as §1, §2

[11] = tested on: Salmonella enteritidis G14; assay: as above; format: cell-based; settings: Salmonella enterica
Protocol: as §1, §2

[12] = tested on: Streptococcus pyogenes Cook; assay: as above; format: cell-based; settings: MH agar, 37°C, 18 hours
Protocol: as §1, §2

Proteus vulgaris OX-19 = assay: as above; format: cell-based; settings: OX19, MH agar, 37°C, 18 hours
Protocol: as §1, §2

[13] = tested on: Morganella morganii IFO3848; assay: as above; format: cell-based; settings: MH agar, 37°C, 18 hours
Protocol: as §1, §2

[14] = tested on: Staphylococcus aureus FDA 209PJC-1; assay: as above; format: cell-based; settings: FDA209PJC1, MH agar, 37°C, 18 hours
Protocol: as §1, §2

[15] = tested on: Serratia marcescens IAM1184; assay: as above; format: cell-based; settings: MH agar, 37°C, 18 hours
Protocol: as §1, §2

Proteus vulgaris HX-19 = assay: as above; format: cell-based; settings: HX19, MH agar, 37°C, 18 hours
Protocol: as §1, §2

[16] = tested on: Escherichia coli NIHJ JC-2; assay: as above; format: cell-based; settings: NIHJJC2, MH agar, 37°C, 18 hours
Protocol: as §1, §2

[17] = tested on: Salmonella paratyphi 1015; assay: as above; format: cell-based; settings: Salmonella enterica, MH agar, 37°C, 18 hours
Protocol: as §1, §2

[18] = tested on: Micrococcus luteus ATCC9341; assay: as above; format: cell-based; settings: MH agar, 37°C, 18 hours
Protocol: as §1, §2

Enterobacter cloacae 963 = assay: as above; format: cell-based; settings: MH agar, 37°C, 18 hours
Protocol: as §1, §2

[19] = tested on: Salmonella schottmuelleri 8006; assay: as above; format: cell-based; settings: MH agar, 37°C, 18 hours
Protocol: as §1, §2

[20] = tested on: Escherichia coli K12 C600; assay: as above; format: cell-based; settings: K12C600, MH agar, 37°C, 18 hours
Protocol: as §1, §2

[21] = tested on: Staphylococcus aureus Terajima; assay: as above; format: cell-based; settings: MH agar, 37°C, 18 hours
Protocol: as §1, §2

[22] = biological target: T1, Swine Kidney Dehydropeptidase-I (DHP-I); assay: Stability of test compounds against DHP-I by HPLC; format: in vitro ADME; settings: 37°C, 4.5 hours, Substrate Concentration: 100 µM
Protocol: The swine kidney (8 kg) was homogenized and the enzyme protein was allowed to precipitate. After a connective lipid was removed with acetone, the resultant material was made soluble by treatment with butanol and purified by the ammonium sulfate fraction method, thereby producing DHP-I enzyme from a 75 % ammonium sulfate fraction. The DHP-I enzyme was then adjusted to give an enzyme concentration of 25 mg/10 ml (phosphate buffer, pH 7.1), and divided into 1 ml portions. The portions were frozen and stored at -40°C or less until use. The test compound was adjusted in situ to give a concentration of 117µM with a 50 mM sodium phosphate buffer solution (pH =7.1). Glycyl dehydrophenylalanine (Gl-dh-Ph) and imipenem were employed as control compounds, and they were adjusted in situ each to give a concentration of 117µM with the same sodium phosphate buffer solution. The test compound according to the present invention and the control compounds were treated in substantially the same manner as (1) above. The incubation, however, was conducted at 37°C for 4.5 hours or for 24 hours. The degree of hydrolysis of the compounds each after the test periods was measured by the HPLC method.

[23] = tested on: male mice of CrjCD(SD) strain; assay: Toxicity study in mice, subcutaneous administration, observation for one week; format: in vivo; settings: 500 mg/kg, subcutaneously
Protocol: Toxicological studies were carried out using a group of 10 male mice of CrjCD(SD) strain weighing from 20 to 23 grams. A solution containing the carbapenem compound (11) of the present invention obtained by Example 3 was administered subcutaneously to the mice and subjected to observations for one week.

SMILES	initial velocity of hydrolysis [1] [µM/min]	MIC (Salmonella typhi 901) [µg/mL]	MIC [2] [µg/mL]	MIC [3] [µg/mL]	MIC [4] [µg/mL]	MIC [5] [µg/mL]	MIC [6] [µg/mL]	MIC [8] [µg/mL]	MIC [9] [µg/mL]	MIC [12] [µg/mL]	MIC (Proteus vulgaris OX-19) [µg/mL]	MIC [13] [µg/mL]	MIC [14] [µg/mL]	MIC [15] [µg/mL]	MIC (Proteus vulgaris HX-19) [µg/mL]	MIC [16] [µg/mL]	MIC [17] [µg/mL]	MIC [18] [µg/mL]	MIC (Enterobacter cloacae 963) [µg/mL]	MIC [19] [µg/mL]	other results
C[C@@H](O)[C@H]1C(=O)N2C(C(=O)O)=C(SCCNC=N)C[C@H]12 [Imipenem, imipenem]	0.56	0.05 (≈ 0.167 µM)	0.2 (≈ 0.668 µM)	0.013 (≈ 0.0434 µM)	0.78 (≈ 2.61 µM)	0.39 (≈ 1.3 µM)	0.2 (≈ 0.668 µM)	0.05 (≈ 0.167 µM)	0.025 (≈ 0.0835 µM)	< 0.006	3.13 (≈ 10.5 µM)	3.13 (≈ 10.5 µM)	0.013 (≈ 0.0434 µM)	0.2 (≈ 0.668 µM)	3.13 (≈ 10.5 µM)	0.1 (≈ 0.334 µM)	1.56 (≈ 5.21 µM)	< 0.006	0.78 (≈ 2.61 µM)	0.78 (≈ 2.61 µM)	MIC ([7]; ATCC1304, 18 h): 1.56 µg/mL (≈ 5.21 µM); MIC ([10]; Proteus mirabilis, IFO3849, 18 h): 6.25 µg/mL (≈ 20.9 µM); MIC ([11]; ENTERITIDIS, 18 h): 1.56 µg/mL (≈ 5.21 µM); MIC [20]: 3.13 µg/mL (≈ 10.5 µM); MIC [21]: < 0.006 µg/mL; DEGREES OF HYDROLYSIS BY DHP-I [22]: 77.6 µM
C[C@@H](O)[C@H]1C(=O)N2C(C(=O)[O-])=C(SCCn3cnc[n+]3C)[C@H](C)[C@H]12 [Compound (11), (1R,5S,6S)-6-[(R)-1-hydroxyethyl]-1-methyl-2-[2-(1-methyl-1,2,4-triazolium-2-yl)ethyl]thio-carbapenem-3-carboxylate]		0.05 (≈ 0.142 µM)	0.2 (≈ 0.568 µM)	0.05 (≈ 0.142 µM)	1.56 (≈ 4.43 µM)	0.78 (≈ 2.21 µM)	0.2 (≈ 0.568 µM)	0.05 (≈ 0.142 µM)	0.2 (≈ 0.568 µM)	0.05 (≈ 0.142 µM)	0.78 (≈ 2.21 µM)	0.39 (≈ 1.11 µM)	0.1 (≈ 0.284 µM)	0.2 (≈ 0.568 µM)	0.78 (≈ 2.21 µM)	0.1 (≈ 0.284 µM)	0.78 (≈ 2.21 µM)	0.1 (≈ 0.284 µM)	0.1 (≈ 0.284 µM)	0.39 (≈ 1.11 µM)	toxicity: survival and abnormal observations [23]: alive without any abnormal observations; MIC ([7]; Enterobacter aerogenes ATCC1304, MH agar, 37°C, 18 hours, read-out: MIC): 0.78 µg/mL (≈ 2.21 µM); MIC ([10]; Proteus mirabilis IFO3849, MH agar, 37°C, 18 hours, read-out: MIC): 1.56 µg/mL (≈ 4.43 µM); MIC ([11]; Salmonella enteritidis G14, MH agar, 37°C, 18 hours, read-out: MIC): 0.78 µg/mL (≈ 2.21 µM); MIC [20]: 0.78 µg/mL (≈ 2.21 µM); MIC [21]: 0.025 µg/mL (≈ 0.0709 µM)
NCC(=O)NC(=Cc1ccccc1)C(=O)O [Gl-dh-Ph, Glycyl dehydrophenylalanine]	17.4																				
